# Results published in paper PMC1991597, “Structure and Reaction Mechanism of Basil Eugenol Synthase” (PLoS ONE, 2007).
# Positions count from the first letter of the chain named.
# T1: eugenol synthase (EGS, EGS1) (Ocimum basilicum, UniProt Q15GI4, K132R)
# T1 sequence (Q15GI4 1-314 K132R): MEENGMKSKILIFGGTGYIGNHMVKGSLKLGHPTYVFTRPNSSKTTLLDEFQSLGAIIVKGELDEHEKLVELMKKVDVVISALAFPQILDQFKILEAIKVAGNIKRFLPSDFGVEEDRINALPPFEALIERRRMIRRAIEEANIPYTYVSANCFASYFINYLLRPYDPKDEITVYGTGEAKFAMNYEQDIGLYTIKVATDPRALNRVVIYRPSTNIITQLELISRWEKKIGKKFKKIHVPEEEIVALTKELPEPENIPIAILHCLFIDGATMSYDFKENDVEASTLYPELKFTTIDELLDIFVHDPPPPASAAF
# T2: eugenol synthase (EGS, EGS1) (Ocimum basilicum, UniProt Q15GI4, K132Q)
# T2 sequence (Q15GI4 1-314 K132Q): T1 sequence (Q15GI4 1-314 K132R) with R132Q
# T3: eugenol synthase (EGS, EGS1) (Ocimum basilicum, UniProt Q15GI4, K132A)
# T3 sequence (Q15GI4 1-314 K132A): T1 sequence (Q15GI4 1-314 K132R) with R132A
# B1: eugenol synthase (EGS, EGS1) (Ocimum basilicum) (protein)
# chain: T1 sequence (Q15GI4 1-314 K132R) with R132K
# What was measured:
# [1] = target: T4, eugenol synthase (EGS, EGS1) (Ocimum basilicum, UniProt Q15GI4); assay: X-ray co-crystal structure ([…] Å, soaking); enzyme inhibition kinetics (GC/MS); assay type: biochemical
# [2] = target: T1, eugenol synthase (EGS, EGS1); assay: X-ray crystallography (preliminary structural analysis); assay type: binding
# [3] = target: T2, eugenol synthase (EGS, EGS1); assay: X-ray co-crystal structure ([…] Å); assay type: binding
# [4] = target: T3, eugenol synthase (EGS, EGS1); assay: X-ray crystallography (no deposition stated); assay type: binding
# [5] = target: T4, eugenol synthase (EGS, EGS1); assay: X-ray crystal structure ([…] Å monoclinic; also 2QX7 orthorhombic); assay type: binding
# [6] = target: T4, eugenol synthase (EGS, EGS1); assay: X-ray crystal structure ([…] Å); assay type: binding
# [7] = substrate: COc1cc(/C=C/COC(C)=O)ccc1O; assay: enzyme kinetics by GC/MS (Km); crystal soaking gave no stable complex; assay type: biochemical, Ocimum basilicum; conditions: NADPH active site (binding mode modeled only)
# T4 sequence (Q15GI4 whole entry): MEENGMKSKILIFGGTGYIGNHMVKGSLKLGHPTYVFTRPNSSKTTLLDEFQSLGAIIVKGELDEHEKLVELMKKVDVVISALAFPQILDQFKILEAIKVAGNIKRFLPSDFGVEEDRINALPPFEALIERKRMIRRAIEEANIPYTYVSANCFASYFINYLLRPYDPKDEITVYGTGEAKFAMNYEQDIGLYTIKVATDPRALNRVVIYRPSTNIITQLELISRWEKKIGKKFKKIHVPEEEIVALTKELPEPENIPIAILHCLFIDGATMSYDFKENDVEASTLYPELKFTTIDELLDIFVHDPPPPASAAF
molecule,measurement,setting,value
"CCOC(=O)[C@H]1C[C@@H]1c1ccc(O)c(OC)c1 [EMDF, (1S,2S)-ethyl 2-(4-hydroxy-3-methoxyphenyl) cyclo-propanecarboxylate]",Ki,[1],800 µM
same,X-ray crystallography (preliminary structural analysis),[2],EMDF-bound forms of the Lys132Arg mutant shows that the Arg132 guanidinium moiety is displaced slightly by the EMDF guaiacol ring
same,X-ray co-crystal structure (1.8 Å),[3],"for the Ala132 and Gln132 mutants, both NADP^+ and EMDF binding are little affected (Figure 5C)"
same,X-ray crystallography (no deposition stated),[4],"Crystallographic analyses confirmed that for the Ala132 and Gln132 mutants, both NADP^+ and EMDF binding are little affected"
NC(=O)c1ccc[n+]([C@@H]2O[C@H](COP(=O)(O)OP(=O)(O)OC[C@H]3O[C@@H](n4cnc5c(N)ncnc54)[C@H](OP(=O)(O)O)[C@@H]3O)[C@@H](O)[C@H]2O)c1 [NADP+],X-ray crystal structure (1.6 Å monoclinic; also 2QX7 orthorhombic),[5],The structures of EGS complexed with NADP^+ or NADPH provide the first structural characterization of nicotinamide-cofactor binding
NC(=O)C1=CN([C@@H]2O[C@H](COP(=O)(O)OP(=O)(O)OC[C@H]3O[C@@H](n4cnc5c(N)ncnc54)[C@H](OP(=O)(O)O)[C@@H]3O)[C@@H](O)[C@H]2O)C=CC1 [NADPH],X-ray crystal structure (1.6 Å),[6],"Structural differences between the NADP^+ and NADPH complexes of EGS are small, and center around the nicotinamide ring"
B1,Km,[7],0.57 mM
